Tests used:
Assay type in all cases: in vivo
[1] = tested on: Amaranthus retoflexus (AMARE); experiment: B1 Post-Emergence Efficacy - Test 1; details: 1000 g/ha, after 13 days, five point scale
Protocol: (§1) Seeds of a variety of test species are sown in standard soil in pots:— Solanum nigrum (SOLNI), Amaranthus retoflexus (AMARE), Setaria faberi (SETFA), Alopecurus myosuroides (ALOMY), Echinochloa crus-galli (ECHCG), Ipomoea hederacea (IPOHE), Lolium perenne (LOLPE). After 8 days cultivation (post-emergence) under controlled conditions in a glasshouse (at 24/16° C., day/night; 14 hours light; 65% humidity), the plants are sprayed with an aqueous spray solution derived from the formulation of the technical active ingredient in acetone/water (50:50) solution containing 0.5% Tween 20 (polyoxyethylene sorbitan monolaurate, CAS RN 9005-64-5). Compounds are applied at 1000 g/ha. The test plants are then grown in a glasshouse under controlled conditions in a glasshouse (at 24/16° C., day/night; 14 hours light; 65% humidity) and watered twice daily. After 13 days, the test is evaluated for the percentage damage caused to the plant. The biological activities are assessed on a five point scale (5=80-100%; 4=60-79%; 3=40-59%; 2=20-39%; 1=0-19%). A blank value in the table is indicative that the compound was not tested on that species.

[2] = tested on: Echinochloa crus-galli (ECHCG); experiment: B1 Post-Emergence Efficacy - Test 1; details: 1000 g/ha, after 13 days, five point scale
Protocol: as §1

[3] = tested on: Ipomoea hederacea (IPOHE); experiment: B1 Post-Emergence Efficacy - Test 1; details: 1000 g/ha, after 13 days, five point scale
Protocol: as §1

Lolium perenne (LOLPE) = experiment: B1 Post-Emergence Efficacy - Test 1; details: 1000 g/ha, after 13 days, five point scale
Protocol: as §1

Setaria faberi (SETFA) [4] = experiment: B1 Post-Emergence Efficacy - Test 1; details: 1000 g/ha, after 13 days, five point scale
Protocol: as §1

Solanum nigrum (SOLNI) = experiment: B1 Post-Emergence Efficacy - Test 1; details: 1000 g/ha, after 13 days, five point scale
Protocol: as §1

[5] = tested on: Abutilon theophrasti (ABUTH); experiment: B3 Herbicidal Efficacy of Compounds of Formula (II), post-emergence; details: 312 h, application post-emergence, after 13 days, 100=total damage, 0=no damage, read-out: percentage phytotoxicity to the plant, ABUTH
Protocol: (§2) Seeds of a variety of test species [Ipomoea hederacea (IPOHE); Zea mays (ZEAMX); Echinochloa crus-galli (ECHCG); Setaria faberi (SETFA); Abutilon theophrasti (ABUTH); Amaranthus retroflexus (AMARE)] were sown in standard sterilised soil in pots. After cultivation for one day (pre-emergence) or after 8 days cultivation (post-emergence) under controlled conditions in a glasshouse (at 24/16° C., day/night; 14 hours light; 65% humidity), the plants were sprayed with an aqueous spray solution derived from the formulation of the technical active ingredient in acetone/water (50:50) solution containing 0.5% Tween 20 (polyoxyethelyene sorbitan monolaurate, CAS RN 9005-64-5), subsequently diluted in water, and sprayed to give the stated application rate. The test plants were then grown under controlled conditions in a glasshouse (at 24/16° C., day/night; 14 hours light; 65% humidity) and watered twice daily. After 13 days for pre and post-emergence, the test was evaluated visually for percentage phytotoxicity to the plant (where 100=total damage to plant; 0=no damage to plant).

[6] = tested on: Amaranthus retroflexus (AMARE); experiment: as above; details: 312 h, application post-emergence, after 13 days, 100=total damage, 0=no damage, read-out: percentage phytotoxicity to the plant, AMARE
Protocol: as §2

[7] = tested on: Echinochloa crus-galli (ECHCG); experiment: as above; details: 312 h, application post-emergence, after 13 days, 100=total damage, 0=no damage, read-out: percentage phytotoxicity to the plant, ECHCG
Protocol: as §2

[8] = tested on: Ipomoea hederacea (IPOHE); experiment: as above; details: 312 h, application post-emergence, after 13 days, 100=total damage, 0=no damage, read-out: percentage phytotoxicity to the plant, IPOHE
Protocol: as §2

Setaria faberi (SETFA) [9] = experiment: as above; details: 312 h, application post-emergence, after 13 days, 100=total damage, 0=no damage, read-out: percentage phytotoxicity to the plant, SETFA
Protocol: as §2

Zea mays (ZEAMX) [10] = experiment: as above; details: 312 h, application post-emergence, after 13 days, 100=total damage, 0=no damage, read-out: percentage phytotoxicity to the plant, ZEAMX
Protocol: as §2

[11] = tested on: Abutilon theophrasti (ABUTH); experiment: B3 Herbicidal Efficacy of Compounds of Formula (II), pre-emergence; details: 312 h, application pre-emergence, after 13 days, 100=total damage, 0=no damage, read-out: percentage phytotoxicity to the plant, ABUTH
Protocol: as §2

[12] = tested on: Amaranthus retroflexus (AMARE); experiment: as above; details: 312 h, application pre-emergence, after 13 days, 100=total damage, 0=no damage, read-out: percentage phytotoxicity to the plant, AMARE
Protocol: as §2

[13] = tested on: Echinochloa crus-galli (ECHCG); experiment: as above; details: 312 h, application pre-emergence, after 13 days, 100=total damage, 0=no damage, read-out: percentage phytotoxicity to the plant, ECHCG
Protocol: as §2

[14] = tested on: Ipomoea hederacea (IPOHE); experiment: as above; details: 312 h, application pre-emergence, after 13 days, 100=total damage, 0=no damage, read-out: percentage phytotoxicity to the plant, IPOHE
Protocol: as §2

Setaria faberi (SETFA) [15] = experiment: as above; details: 312 h, application pre-emergence, after 13 days, 100=total damage, 0=no damage, read-out: percentage phytotoxicity to the plant, SETFA
Protocol: as §2

Zea mays (ZEAMX) [16] = experiment: as above; details: 312 h, application pre-emergence, after 13 days, 100=total damage, 0=no damage, read-out: percentage phytotoxicity to the plant, ZEAMX
Protocol: as §2

Structure (SMILES) | percentage damage caused to the plant, AMARE [1] | percentage damage caused to the plant, ECHCG [2] | percentage damage caused to the plant, IPOHE [3] | percentage damage caused to the plant, LOLPE (Lolium perenne (LOLPE)) | percentage damage caused to the plant, SETFA (Setaria faberi (SETFA) [4]) | percentage damage caused to the plant, SOLNI (Solanum nigrum (SOLNI)) | pest or weed control at 250 g/ha [5] [%] | pest or weed control at 250 g/ha [6] [%] | pest or weed control at 250 g/ha [7] [%] | pest or weed control at 250 g/ha [8] [%] | pest or weed control at 250 g/ha (Setaria faberi (SETFA) [9]) [%] | percent crop injury (phytotoxicity to maize) at 250 g/ha (Zea mays (ZEAMX) [10]) [%] | pest or weed control at 250 g/ha [11] [%] | pest or weed control at 250 g/ha [12] [%] | pest or weed control at 250 g/ha [13] [%] | pest or weed control at 250 g/ha [14] [%] | pest or weed control at 250 g/ha (Setaria faberi (SETFA) [15]) [%] | plant injury at 250 g/ha (Zea mays (ZEAMX) [16]) [%]
Cc1ccc(CCc2c(Cl)ccc(F)c2-c2c(OC(=O)C(C)C)c(C)nn(C)c2=O)cc1 [Compound 1.149, [5-[3-chloro-6-fluoro-2-[2-(p-tolyl)ethyl]phenyl]-1,3-dimethyl-6-oxo-pyridazin-4-yl] 2-methylpropanoate] | 5 (5=80-100%) | 5 (5=80-100%) | 5 (5=80-100%) | 5 (5=80-100%) | 5 (5=80-100%) | 5 (5=80-100%) |  |  |  |  |  |  |  |  |  |  |  | 
Cc1nn(C)c(=O)c(-c2c(F)ccc(Cl)c2CCc2cccnc2)c1O [Compound 1.054, 4-[3-chloro-6-fluoro-2-[2-(3-pyridyl)ethyl]phenyl]-5-hydroxy-2,6-dimethyl-pyridazin-3-one] | 5 (5=80-100%) | 5 (5=80-100%) | 5 (5=80-100%) | 5 (5=80-100%) | 5 (5=80-100%) | 5 (5=80-100%) |  |  |  |  |  |  |  |  |  |  |  | 
CN1C[C@H](c2cc(C(F)(F)F)n(C)n2)[C@@H](C(=O)Nc2cccc(F)c2C(C)(F)F)C1=O [Compound 2.12, (3S,4R)-N-[2-(1,1-difluoroethyl)-3-fluoro-phenyl]-1-methyl-4-[1-methyl-5-(trifluoromethyl)pyrazol-3-yl]-2-oxo-pyrrolidine-3-carboxamide] |  |  |  |  |  |  | 0 | 0 | 90 | 50 | 90 | 80 | 0 | 0 | 90 | 70 | 90 | 90
Cc1nn(C)c(=O)c(-c2c(F)ccc(Cl)c2CCc2ccc(C(F)(F)F)cc2)c1O [Compound 1.018, 4-[3-chloro-6-fluoro-2-[2-[4-(trifluoromethyl)phenyl]ethyl]phenyl]-5-hydroxy-2,6-dimethyl-pyridazin-3-one] | 5 (5=80-100%) | 5 (5=80-100%) | 5 (5=80-100%) | 5 (5=80-100%) | 5 (5=80-100%) | 5 (5=80-100%) |  |  |  |  |  |  |  |  |  |  |  | 
Cc1nn(C)c(=O)c(-c2c(F)ccc(Cl)c2CCc2ccc(Cl)cc2)c1O [Compound 1.012, 4-[3-chloro-2-[2-(4-chlorophenyl)ethyl]-6-fluoro-phenyl]-5-hydroxy-2,6-dimethyl-pyridazin-3-one] | 5 (5=80-100%) | 5 (5=80-100%) | 5 (5=80-100%) | 5 (5=80-100%) | 5 (5=80-100%) | 5 (5=80-100%) |  |  |  |  |  |  |  |  |  |  |  | 
Cc1nn(C)c(=O)c(-c2c(F)ccc(Cl)c2/C=C/c2ccccc2)c1O [Compound 1.002, 4-[3-chloro-6-fluoro-2-[(E)-styryl]phenyl]-5-hydroxy-2,6-dimethyl-pyridazin-3-one] | 4 (4=60-79%) | 4 (4=60-79%) | 5 (5=80-100%) | 4 (4=60-79%) | 3 (3=40-59%) | 5 (5=80-100%) |  |  |  |  |  |  |  |  |  |  |  | 
Cc1nn(C)c(=O)c(-c2c(F)ccc(Cl)c2CCc2ccccc2)c1O [Compound 1.001, 4-(3-chloro-6-fluoro-2-phenethyl-phenyl)-5-hydroxy-2,6-dimethyl-pyridazin-3-one] | 5 (5=80-100%) | 5 (5=80-100%) | 5 (5=80-100%) | 5 (5=80-100%) | 5 (5=80-100%) | 5 (5=80-100%) |  |  |  |  |  |  |  |  |  |  |  | 
Cc1nn(C)c(=O)c(-c2c(F)ccc(Cl)c2CCc2ccc(C(F)(F)F)cc2)c1OC(=O)C(C)C [Compound 1.095, [5-[3-chloro-6-fluoro-2-[2-[4-(trifluoromethyl)phenyl]ethyl]phenyl]-1,3-dimethyl-6-oxo-pyridazin-4-yl] 2-methylpropanoate] | 5 (5=80-100%) | 5 (5=80-100%) | 5 (5=80-100%) | 5 (5=80-100%) |  | 5 (5=80-100%) |  |  |  |  |  |  |  |  |  |  |  | 
Cc1nn(C)c(=O)c(-c2c(F)ccc(Cl)c2CCc2ccc(F)c(F)c2)c1O [Compound 1.060, 4-[3-chloro-2-[2-(3,4-difluorophenyl)ethyl]-6-fluoro-phenyl]-5-hydroxy-2,6-dimethyl-pyridazin-3-one] | 5 (5=80-100%) | 5 (5=80-100%) | 5 (5=80-100%) | 5 (5=80-100%) | 5 (5=80-100%) | 5 (5=80-100%) |  |  |  |  |  |  |  |  |  |  |  | 
